Test results as given in patent US20240309007A1, “CRYSTALLINE FORMS OF 3-{4-[(2R)-2-AMINOPROPOXY]PHENYL}-N-[(1R)- 1-(3-FLUOROPHENYL) ETHYL]IMIDAZO[1,2-B]PYRIDAZIN-6-AMINE AND SALTS THEREOF” (ANHEART THERAPEUTICS (HANGZHOU) CO., LTD., priority 2021, published 2024).
≈ marks a conversion by molar mass, not a printed value.

What was measured:
Format in all cases: physicochemical
[1] = Solubility of the crystalline form in buffers, SGF, FaSSIF, FeSSIF and water at 37° C. (HPLC; XRPD of undissolved solid); settings: for solubility at 2 h / solubility at 24 h: 37 °C, thermodynamic from solid
Excerpt: (1) a KCl/HCl buffer solution with a pH of 1.0, (2) a potassium hydrogen phthalate buffer solution with a pH of 3.0, (3) a sodium acetate trihydrate buffer solution with a pH of 4.5, (4) a potassium dihydrogen phosphate buffer solution with a pH of 6.0, (5) a potassium dihydrogen phosphate buffer solution with a pH of 7.5, (6) SGF (simulated gastric fluid), (7) FaSSIF (fasted state simulated intestinal fluids, pH=6.5), (8) FeSSIF (fed state simulated intestinal fluids, pH=5.0), and (9) water. Each mixture was then stirred in a water bath at 37° C. After equilibrated for 2 hours and 24 hours, concentrations (mg/mL) of the crystal in the mixture were measured by HPLC and the undissolved solid was evaluated by XRPD.

[2] = Long-term stability test, 25° C./60% RH, three years; settings: for Appearance / Assay (anhydrous and solvent free basis) / Individual unspecified impurity (Maximum) / Total impurities / Water content / deF-6051: 25° C. ± 2° C./60 ± 5% RH
Protocol: The long-term stability test of the crystalline form A of Compound 1 adipate was performed by storing a sample at 25°±2° C./[…] for three years.

[3] = Accelerated stability test, 40° C./75% RH, six months; settings: for Appearance / Assay Adipic acid (potentiometric titration) / Assay DS-6051a (HPLC)/ (anhydrous and solvent free basis) / Related substances (UPLC) Total impurities / Water content (KF) / Related substances (UPLC) Unspecified individual impurity / Crystal form (XRPD): 40° C. ± 2° C./75 ± 5% RH; for Crystal form (XRPD): consistent with reference standard
Protocol: The accelerated stability test of the crystalline form A of Compound 1 adipate was performed by storing a sample at 40° C.±2° C./[…] for six months.

[4] = FaSSIF (fasted state simulated intestinal fluid), pH 6.5, fassif
[5] = FeSSIF (fed state simulated intestinal fluid), pH 5, fessif
[6] = KCl/HCl buffer, pH 1, simulated gastric fluid
[7] = SGF (simulated gastric fluid), 37° C.
[8] = SGF (simulated gastric fluid), simulated gastric fluid
[9] = potassium dihydrogen phosphate buffer pH 6.0, 37° C.
[10] = potassium dihydrogen phosphate buffer pH 7.5, 37° C.
[11] = potassium dihydrogen phosphate buffer, pH 6, aqueous buffer
[12] = potassium dihydrogen phosphate buffer, pH 7.5, aqueous buffer
[13] = potassium hydrogen phthalate buffer pH 3.0, 37° C.
[14] = potassium hydrogen phthalate buffer, pH 3, aqueous buffer
[15] = sodium acetate trihydrate buffer pH 4.5, 37° C.
[16] = sodium acetate trihydrate buffer, pH 4.5, aqueous buffer

solubility at 2 h [1, 4]: 331 µg/mL (≈ 0.816 mM)
solubility at 24 h [1, 4]: 225 µg/mL (≈ 0.555 mM)
XRPD of undissolved solid ([1]; FaSSIF (pH=6.5), 37° C.): changed
pH after 24 hours ([1]; FaSSIF (pH=6.5), 37° C.): 5.008
solubility at 2 h [1, 5]: 493 µg/mL (≈ 1.22 mM)
solubility at 24 h [1, 5]: 143 µg/mL (≈ 0.353 mM)
XRPD of undissolved solid ([1]; FeSSIF (pH=5.0), 37° C.): Form A
pH after 24 hours ([1]; FeSSIF (pH=5.0), 37° C.): 4.205
XRPD of undissolved solid ([1]; KCl/HCl buffer pH 1.0, 37° C.): changed
pH after 24 hours ([1]; KCl/HCl buffer pH 1.0, 37° C.): 3.746
solubility at 2 h [1, 6]: 20400 µg/mL (≈ 50.4 mM)
solubility at 24 h [1, 6]: 17800 µg/mL (≈ 43.9 mM)
XRPD of undissolved solid [1, 7]: changed
pH after 24 hours [1, 7]: 5.281
solubility at 2 h [1, 8]: 15600 µg/mL (≈ 38.5 mM)
solubility at 24 h [1, 8]: 16000 µg/mL (≈ 39.4 mM)
solubility (in words) ([1]; pH 1): superior solubility
XRPD of undissolved solid [1, 9]: Form A
pH after 24 hours [1, 9]: 5.055
XRPD of undissolved solid [1, 10]: changed
pH after 24 hours [1, 10]: 5.570
solubility at 2 h [1, 11]: 2340 µg/mL (≈ 5.76 mM)
solubility at 24 h [1, 11]: 1700 µg/mL (≈ 4.2 mM)
solubility at 2 h [1, 12]: 597 µg/mL (≈ 1.47 mM)
solubility at 24 h [1, 12]: 419 µg/mL (≈ 1.03 mM)
XRPD of undissolved solid [1, 13]: changed
pH after 24 hours [1, 13]: 4.418
solubility at 2 h [1, 14]: 1350 µg/mL (≈ 3.32 mM)
solubility at 24 h [1, 14]: 852 µg/mL (≈ 2.1 mM)
XRPD of undissolved solid [1, 15]: Form A
pH after 24 hours [1, 15]: 4.541
solubility at 2 h [1, 16]: 2840 µg/mL (≈ 7 mM)
solubility at 24 h [1, 16]: 2880 µg/mL (≈ 7.12 mM)
XRPD of undissolved solid ([1]; water, 37° C.): Form A
pH after 24 hours ([1]; water, 37° C.): 5.115
solubility at 2 h ([1]; water): 1610 µg/mL (≈ 3.96 mM)
solubility at 24 h ([1]; water): 1410 µg/mL (≈ 3.48 mM)
stability (in words) [2]: superior stability
Appearance ([2]; 0 M): White
Assay (anhydrous and solvent free basis) ([2]; 0 M): 100.0%
Individual unspecified impurity (Maximum) ([2]; 0 M): 0.09%
Total impurities ([2]; 0 M): 0.61%
Water content ([2]; 0 M): 0.07%
deF-6051 ([2]; 0 M): 0.46%
Appearance ([2]; 3 M): White
Assay (anhydrous and solvent free basis) ([2]; 3 M): 100.0%
Individual unspecified impurity (Maximum) ([2]; 3 M): 0.09%
Total impurities ([2]; 3 M): 0.61%
Water content ([2]; 3 M): 0.08%
deF-6051 ([2]; 3 M): 0.46%
Appearance ([2]; 6 M): White
Assay (anhydrous and solvent free basis) ([2]; 6 M): 100.0%
Individual unspecified impurity (Maximum) ([2]; 6 M): 0.09%
Total impurities ([2]; 6 M): 0.54%
Water content ([2]; 6 M): 0.11%
deF-6051 ([2]; 6 M): 0.45%
Appearance ([2]; 9 M): White
Assay (anhydrous and solvent free basis) ([2]; 9 M): 99.9%
Individual unspecified impurity (Maximum) ([2]; 9 M): 0.09%
Total impurities ([2]; 9 M): 0.60%
Water content ([2]; 9 M): 0.08%
deF-6051 ([2]; 9 M): 0.46%
Appearance ([2]; 12 M): White
Assay (anhydrous and solvent free basis) ([2]; 12 M): 100.2%
Individual unspecified impurity (Maximum) ([2]; 12 M): 0.09%
Total impurities ([2]; 12 M): 0.55%
Water content ([2]; 12 M): 0.09%
deF-6051 ([2]; 12 M): 0.46%
Appearance ([2]; 18 M): White
Assay (anhydrous and solvent free basis) ([2]; 18 M): 100.2%
Individual unspecified impurity (Maximum) ([2]; 18 M): 0.09%
Total impurities ([2]; 18 M): 0.55%
Water content ([2]; 18 M): 0.06%
deF-6051 ([2]; 18 M): 0.46%
Appearance ([2]; 24 M): White
Assay (anhydrous and solvent free basis) ([2]; 24 M): 99.7%
Individual unspecified impurity (Maximum) ([2]; 24 M): 0.09%
Total impurities ([2]; 24 M): 0.54%
Water content ([2]; 24 M): 0.07%
deF-6051 ([2]; 24 M): 0.45%
Appearance ([2]; 36 M): White
Assay (anhydrous and solvent free basis) ([2]; 36 M): 100.0%
Individual unspecified impurity (Maximum) ([2]; 36 M): 0.09%
Total impurities ([2]; 36 M): 0.53%
Water content ([2]; 36 M): 0.06%
deF-6051 ([2]; 36 M): 0.44%
time stable at room temperature in a sealed container ([2]; room temperature, sealed container): at least 36 months
stability (in words) [3]: superior stability
Appearance ([3]; 0 M): White
Assay Adipic acid (potentiometric titration) ([3]; 0 M): 26.2%
Assay DS-6051a (HPLC)/ (anhydrous and solvent free basis) ([3]; 0 M): 99.5%
Related substances (UPLC) Total impurities ([3]; 0 M): 0.05%
Water content (KF) ([3]; 0 M): 0.2%
Related substances (UPLC) Unspecified individual impurity ([3]; 0 M, RRT1.48): 0.05%
Crystal form (XRPD) ([3]; 0 M): conform
Appearance ([3]; 1 M): White
Assay Adipic acid (potentiometric titration) ([3]; 1 M): 26.5%
Assay DS-6051a (HPLC)/ (anhydrous and solvent free basis) ([3]; 1 M): 100.1%
Related substances (UPLC) Total impurities ([3]; 1 M): <0.05%
Related substances (UPLC) Unspecified individual impurity ([3]; 1 M): <0.05%
Water content (KF) ([3]; 1 M): 0.1%
Crystal form (XRPD) ([3]; 1 M): conform
Appearance ([3]; 2 M): White
Assay Adipic acid (potentiometric titration) ([3]; 2 M): 26.4%
Assay DS-6051a (HPLC)/ (anhydrous and solvent free basis) ([3]; 2 M): 99.6%
Related substances (UPLC) Total impurities ([3]; 2 M): <0.05%
Related substances (UPLC) Unspecified individual impurity ([3]; 2 M): <0.05%
Water content (KF) ([3]; 2 M): 0.1%
Crystal form (XRPD) ([3]; 2 M): conform
Appearance ([3]; 3 M): White
Assay Adipic acid (potentiometric titration) ([3]; 3 M): 26.2%
Assay DS-6051a (HPLC)/ (anhydrous and solvent free basis) ([3]; 3 M): 99.5%
Related substances (UPLC) Total impurities ([3]; 3 M): <0.05%
Related substances (UPLC) Unspecified individual impurity ([3]; 3 M): <0.05%
Water content (KF) ([3]; 3 M): 0.1%
Crystal form (XRPD) ([3]; 3 M): conform
Appearance ([3]; 6 M): White
Assay Adipic acid (potentiometric titration) ([3]; 6 M): 26.2%
Assay DS-6051a (HPLC)/ (anhydrous and solvent free basis) ([3]; 6 M): 99.0%
Related substances (UPLC) Total impurities ([3]; 6 M): <0.05%
Related substances (UPLC) Unspecified individual impurity ([3]; 6 M): <0.05%
Water content (KF) ([3]; 6 M): 0.1%
Crystal form (XRPD) ([3]; 6 M): conform
Compound: C[C@@H](N)COc1ccc(-c2cnc3ccc(N[C@H](C)c4cccc(F)c4)nn23)cc1 [crystalline form A of Compound 1 adipate, 3-{4-[(2R)-2-aminopropoxy]phenyl}-N-[(1R)-1-(3-fluorophenyl)ethyl]imidazo[1,2-b]pyridazin-6-amine]
